According to US20260217670A1, “CRYSTAL FORM OF BAXDROSTAT, AND PREPARATION METHOD THEREFOR AND USE THEREOF” (CRYSTAL PHARMACEUTICAL (SUZHOU) CO., LTD., priority 2023, published 2026):

Tests used:
Type in all cases: physicochemical
[1] = Storage stability of Form CSI, purity by HPLC and crystalline form by XRPD
Procedure: (§1) XRPD patterns in the present disclosure were acquired by a Bruker D8 DISCOVER X-ray powder diffractometer. The parameters of the X-ray powder diffraction method of the present disclosure are as follows: • X-Ray source: Cu, Kα • Kα1 (Å): 1.54060; Kα2 (Å): 1.54439 • Kα2/Kα1 intensity ratio: 0.50 • Voltage: 40 kV • Current: 40 mA • Scan range (20): from 4.0 degree to 40.0 degree
A certain amount of Form CSI prepared by the present disclosure was stored under conditions of 25° C./60% RH, 40° C./75% RH and 60° C./75% RH. The purity and crystalline form were checked by HPLC and XRPD. The results are listed in Table 3, and the XRPD overlay is substantially as depicted in FIG. 7 and FIG. 8. […] Under 60° C./75% RH, it remains stable for at least 1 month with its purity also essentially unchanged, indicating very good stability even under stress conditions.

[2] = DVS weight gain at various humidity (hygroscopicity / humidity stability)
Procedure: Purge gas: N2DVS data in the present disclosure were measured via an SMS (Surface Measurement Systems Ltd.) intrinsic DVS instrument. The instrument control software is DVS-Intrinsic control software. Typical parameters for DVS test are as follows: • Temperature: 25° C. • Gas and flow rate: N2, 200 mL/min • RH range: 0% RH to 95% RH
A certain amount of Form CSI was used to test the weight gain at various humidity by a DVS instrument. The weight gains at each relative humidity were recorded in a cycle of 60% RH-95% RH-0% RH-95% RH-0% RH. […] The XRPD overlay before and after DVS test is substantially as depicted in FIG. 11.

[3] = Wet ball milling (grinding stability); details: for Solid form after grinding: wet ball milling, 1800 rpm for 10 min
Procedure: as §1
A certain amount of Form CSI solid was placed in a centrifuge tube, and about 10 μL of corresponding solvent was added inside, along with a 5 mm grinding ball. The centrifuge tube containing the sample was installed on the GT300 vibration ball mill and subjected to wet ball milling at 1800 rpm for 10 min.

[4] = 25° C./60% RH, Open package, 6 months
[5] = 25° C./60% RH, Sealed package, 6 months
[6] = 40° C./75% RH, Open package, 6 months
[7] = 40° C./75% RH, Sealed package, 6 months
[8] = 60° C./75% RH, Open package, 1 month
[9] = 60° C./75% RH, Sealed package, 1 month
[10] = wet ball milling at 1800 rpm for 10 min, water or ethanol

- Time Form CSI remains stable with purity essentially unchanged ([1]; 25° C./60% RH): at least 6 months
- Purity [1, 4]: 99.27%
- Solid form [1, 4]: Form CSI
- Purity [1, 5]: 99.22%
- Solid form [1, 5]: Form CSI
- Time Form CSI remains stable with purity essentially unchanged ([1]; 40° C./75% RH): at least 6 months
- Purity [1, 6]: 99.26%
- Solid form [1, 6]: Form CSI
- Purity [1, 7]: 99.21%
- Solid form [1, 7]: Form CSI
- Time Form CSI remains stable with purity essentially unchanged ([1]; 60° C./75% RH): at least 1 month
- Purity [1, 8]: 99.26%
- Solid form [1, 8]: Form CSI
- Purity [1, 9]: 99.24%
- Solid form [1, 9]: Form CSI
- Purity ([1]; Initial): 99.23%
- Solid form ([1]; Initial): Form CSI
- Form change before and after DVS test (XRPD) ([2]; cycle of 60% RH-95% RH-0% RH-95% RH-0% RH): No form change
- Weight gain ([2]; from 60% RH to 80% RH, DVS, 25° C.): 0.34%
- Crystalline form before and after wet ball milling [3, 10]: remains unchanged
- Crystallinity after wet ball milling [3, 10]: no significant decrease
- Solid form after grinding ([3]; Ethanol): Form CSI
- Solid form after grinding ([3]; Water): Form CSI
SMILES: CCC(=O)N[C@@H]1CCCc2c(-c3ccc4c(c3)CCC(=O)N4C)cncc21 [Form CSI, (+)-(R)—N-(4-(1-methyl-2-oxo-1,2,3,4-tetrahydroquinolin-6-yl)-5,6,7,8-tetrahydroisoquinolin-8-yl) propionamide]
